Data: ChEMBL document CHEMBL4406889, “The identification and pharmacological evaluation of potent, selective and orally available ACC1 inhibitor” (Bioorg Med Chem Lett, 2019)

Tests used:
[1] = in vivo; details: ICR, mouse, iv, 0.1 mg/kg
Description: Clearance in ICR mouse at 0.1 mg/kg, iv

[2] = in vitro; details: human, liver microsomes
Description: Metabolic stability in human Liver microsomes

[3] = in vivo; details: ICR, mouse, iv, 0.1 mg/kg; remark: listed apart in the source
Description: Half life in ICR mouse at 0.1 mg/kg, iv

[4] = in vivo; details: ICR, mouse, po, 1 mg/kg
[5] = in vitro; details: PAMPA, pH 5
Description: Permeability of compound at pH 5 by PAMPA assay

[6] = molecular target: Acetyl-CoA carboxylase 2 (Mus musculus, UniProt E9Q4Z2); experiment: biochemical
Description: Inhibition of mouse His-tagged ACC2 expressed in baculovirus infected SF9 cells using acetyl-CoA as substrate incubated for 60 mins followed by substrate addition and measured after 30 mins Rapidfire-Mass spectrometry

[7] = molecular target: Acetyl-CoA carboxylase 1 (Mus musculus, UniProt Q5SWU9); experiment: biochemical
Description: Inhibition of mouse His-tagged ACC1 expressed in baculovirus infected SF9 cells using acetyl-CoA as substrate incubated for 60 mins followed by substrate addition and measured after 30 mins Rapidfire-Mass spectrometry

[8] = in vivo; details: ICR, mouse, iv, 0.1 mg/kg; remark: listed apart in the source
Description: Volume of distribution at steady state in ICR mouse at 0.1 mg/kg, iv

[9] = in vitro; details: mouse, liver microsomes
Description: Metabolic stability in mouse Liver microsomes

[10] = in vitro; details: PAMPA, pH 7.4
Description: Permeability of compound at pH 7.4 by PAMPA assay

[11] = in vivo; details: ICR, mouse, po, 1 mg/kg; remark: listed apart in the source
Description: MRT in ICR mouse at 1 mg/kg, po

[12] = in vivo; details: ICR, mouse, iv, 0.1 mg/kg; remark: listed apart in the source
[13] = in vivo; details: ICR, mouse, po, 1 mg/kg; remark: listed apart in the source
[14] = molecular target: Acetyl-CoA carboxylase 2 (Homo sapiens, UniProt O00763); experiment: biochemical
Description: Inhibition of recombinant human His-tagged ACC2 expressed in baculovirus infected SF9 cells using acetyl-CoA as substrate incubated for 60 mins followed by substrate addition and measured after 30 mins Rapidfire-Mass spectrometry

[15] = molecular target: Acetyl-CoA carboxylase 1 (Homo sapiens, UniProt Q13085); experiment: biochemical
Description: Inhibition of recombinant human His-tagged ACC1 expressed in baculovirus infected SF9 cells using acetyl-CoA as substrate incubated for 60 mins followed by substrate addition and measured after 30 mins Rapidfire-Mass spectrometry

Sequence of Acetyl-CoA carboxylase 2 (Homo sapiens, UniProt O00763) (O00763 whole entry): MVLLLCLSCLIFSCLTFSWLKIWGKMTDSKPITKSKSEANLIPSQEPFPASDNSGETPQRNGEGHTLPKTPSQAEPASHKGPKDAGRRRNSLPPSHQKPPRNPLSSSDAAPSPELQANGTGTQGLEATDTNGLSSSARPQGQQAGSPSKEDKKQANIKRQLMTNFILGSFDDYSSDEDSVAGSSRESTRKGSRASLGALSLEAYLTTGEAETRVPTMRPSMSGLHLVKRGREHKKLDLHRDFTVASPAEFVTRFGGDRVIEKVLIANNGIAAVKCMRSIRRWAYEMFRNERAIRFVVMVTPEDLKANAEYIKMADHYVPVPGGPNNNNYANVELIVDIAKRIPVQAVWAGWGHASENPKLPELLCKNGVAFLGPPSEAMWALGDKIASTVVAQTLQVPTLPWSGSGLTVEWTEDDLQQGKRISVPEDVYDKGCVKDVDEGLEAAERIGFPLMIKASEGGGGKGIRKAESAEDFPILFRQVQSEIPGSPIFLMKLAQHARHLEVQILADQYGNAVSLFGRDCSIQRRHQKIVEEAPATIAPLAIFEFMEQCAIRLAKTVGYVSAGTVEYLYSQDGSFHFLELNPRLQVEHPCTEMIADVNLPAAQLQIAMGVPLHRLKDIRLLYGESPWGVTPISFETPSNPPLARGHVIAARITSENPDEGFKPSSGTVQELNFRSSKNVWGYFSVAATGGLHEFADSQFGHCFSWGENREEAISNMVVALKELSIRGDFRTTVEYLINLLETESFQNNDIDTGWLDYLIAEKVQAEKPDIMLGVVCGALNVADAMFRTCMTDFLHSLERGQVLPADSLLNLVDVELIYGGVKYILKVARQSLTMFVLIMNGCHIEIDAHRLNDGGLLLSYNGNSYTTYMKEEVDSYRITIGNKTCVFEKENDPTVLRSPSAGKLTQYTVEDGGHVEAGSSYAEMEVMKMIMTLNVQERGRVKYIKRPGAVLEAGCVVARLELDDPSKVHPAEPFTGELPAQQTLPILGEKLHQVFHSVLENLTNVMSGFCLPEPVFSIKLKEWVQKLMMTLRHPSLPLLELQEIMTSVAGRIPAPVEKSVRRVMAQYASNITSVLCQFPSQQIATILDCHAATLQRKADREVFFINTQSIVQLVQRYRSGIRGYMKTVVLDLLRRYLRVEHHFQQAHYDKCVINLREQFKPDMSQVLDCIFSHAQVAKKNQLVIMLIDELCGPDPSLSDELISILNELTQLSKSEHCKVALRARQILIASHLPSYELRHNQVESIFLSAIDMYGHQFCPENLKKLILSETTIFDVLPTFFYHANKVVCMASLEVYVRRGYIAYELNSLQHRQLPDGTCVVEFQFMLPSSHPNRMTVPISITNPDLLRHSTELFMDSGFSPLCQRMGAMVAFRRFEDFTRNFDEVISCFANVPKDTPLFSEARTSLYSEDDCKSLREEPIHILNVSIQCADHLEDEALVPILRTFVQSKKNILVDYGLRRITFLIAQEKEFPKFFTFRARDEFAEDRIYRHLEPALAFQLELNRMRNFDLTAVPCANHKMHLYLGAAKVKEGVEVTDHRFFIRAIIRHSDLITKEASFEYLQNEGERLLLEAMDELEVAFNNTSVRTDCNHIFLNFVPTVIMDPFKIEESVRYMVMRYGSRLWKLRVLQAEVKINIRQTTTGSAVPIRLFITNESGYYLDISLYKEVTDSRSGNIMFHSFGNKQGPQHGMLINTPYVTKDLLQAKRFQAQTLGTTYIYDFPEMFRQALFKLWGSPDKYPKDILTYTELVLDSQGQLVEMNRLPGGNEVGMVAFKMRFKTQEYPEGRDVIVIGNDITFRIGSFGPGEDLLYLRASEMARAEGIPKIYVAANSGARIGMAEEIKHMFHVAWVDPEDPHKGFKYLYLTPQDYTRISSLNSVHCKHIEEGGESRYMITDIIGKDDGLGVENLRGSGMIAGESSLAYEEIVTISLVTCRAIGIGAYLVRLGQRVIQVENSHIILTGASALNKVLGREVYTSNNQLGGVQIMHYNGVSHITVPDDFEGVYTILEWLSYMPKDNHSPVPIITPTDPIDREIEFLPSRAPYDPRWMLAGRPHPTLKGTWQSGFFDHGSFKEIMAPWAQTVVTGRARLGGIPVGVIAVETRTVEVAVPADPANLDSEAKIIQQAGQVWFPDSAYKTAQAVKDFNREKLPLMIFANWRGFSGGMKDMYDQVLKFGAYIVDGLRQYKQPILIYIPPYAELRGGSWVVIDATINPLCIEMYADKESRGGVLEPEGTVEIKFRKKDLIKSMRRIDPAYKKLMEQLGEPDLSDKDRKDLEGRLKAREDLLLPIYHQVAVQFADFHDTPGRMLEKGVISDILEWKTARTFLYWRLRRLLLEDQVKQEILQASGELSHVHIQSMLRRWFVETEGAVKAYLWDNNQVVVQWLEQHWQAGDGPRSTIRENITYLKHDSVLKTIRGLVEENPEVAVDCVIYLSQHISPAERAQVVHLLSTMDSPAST
Sequence of Acetyl-CoA carboxylase 2 (Mus musculus, UniProt E9Q4Z2) (E9Q4Z2 whole entry): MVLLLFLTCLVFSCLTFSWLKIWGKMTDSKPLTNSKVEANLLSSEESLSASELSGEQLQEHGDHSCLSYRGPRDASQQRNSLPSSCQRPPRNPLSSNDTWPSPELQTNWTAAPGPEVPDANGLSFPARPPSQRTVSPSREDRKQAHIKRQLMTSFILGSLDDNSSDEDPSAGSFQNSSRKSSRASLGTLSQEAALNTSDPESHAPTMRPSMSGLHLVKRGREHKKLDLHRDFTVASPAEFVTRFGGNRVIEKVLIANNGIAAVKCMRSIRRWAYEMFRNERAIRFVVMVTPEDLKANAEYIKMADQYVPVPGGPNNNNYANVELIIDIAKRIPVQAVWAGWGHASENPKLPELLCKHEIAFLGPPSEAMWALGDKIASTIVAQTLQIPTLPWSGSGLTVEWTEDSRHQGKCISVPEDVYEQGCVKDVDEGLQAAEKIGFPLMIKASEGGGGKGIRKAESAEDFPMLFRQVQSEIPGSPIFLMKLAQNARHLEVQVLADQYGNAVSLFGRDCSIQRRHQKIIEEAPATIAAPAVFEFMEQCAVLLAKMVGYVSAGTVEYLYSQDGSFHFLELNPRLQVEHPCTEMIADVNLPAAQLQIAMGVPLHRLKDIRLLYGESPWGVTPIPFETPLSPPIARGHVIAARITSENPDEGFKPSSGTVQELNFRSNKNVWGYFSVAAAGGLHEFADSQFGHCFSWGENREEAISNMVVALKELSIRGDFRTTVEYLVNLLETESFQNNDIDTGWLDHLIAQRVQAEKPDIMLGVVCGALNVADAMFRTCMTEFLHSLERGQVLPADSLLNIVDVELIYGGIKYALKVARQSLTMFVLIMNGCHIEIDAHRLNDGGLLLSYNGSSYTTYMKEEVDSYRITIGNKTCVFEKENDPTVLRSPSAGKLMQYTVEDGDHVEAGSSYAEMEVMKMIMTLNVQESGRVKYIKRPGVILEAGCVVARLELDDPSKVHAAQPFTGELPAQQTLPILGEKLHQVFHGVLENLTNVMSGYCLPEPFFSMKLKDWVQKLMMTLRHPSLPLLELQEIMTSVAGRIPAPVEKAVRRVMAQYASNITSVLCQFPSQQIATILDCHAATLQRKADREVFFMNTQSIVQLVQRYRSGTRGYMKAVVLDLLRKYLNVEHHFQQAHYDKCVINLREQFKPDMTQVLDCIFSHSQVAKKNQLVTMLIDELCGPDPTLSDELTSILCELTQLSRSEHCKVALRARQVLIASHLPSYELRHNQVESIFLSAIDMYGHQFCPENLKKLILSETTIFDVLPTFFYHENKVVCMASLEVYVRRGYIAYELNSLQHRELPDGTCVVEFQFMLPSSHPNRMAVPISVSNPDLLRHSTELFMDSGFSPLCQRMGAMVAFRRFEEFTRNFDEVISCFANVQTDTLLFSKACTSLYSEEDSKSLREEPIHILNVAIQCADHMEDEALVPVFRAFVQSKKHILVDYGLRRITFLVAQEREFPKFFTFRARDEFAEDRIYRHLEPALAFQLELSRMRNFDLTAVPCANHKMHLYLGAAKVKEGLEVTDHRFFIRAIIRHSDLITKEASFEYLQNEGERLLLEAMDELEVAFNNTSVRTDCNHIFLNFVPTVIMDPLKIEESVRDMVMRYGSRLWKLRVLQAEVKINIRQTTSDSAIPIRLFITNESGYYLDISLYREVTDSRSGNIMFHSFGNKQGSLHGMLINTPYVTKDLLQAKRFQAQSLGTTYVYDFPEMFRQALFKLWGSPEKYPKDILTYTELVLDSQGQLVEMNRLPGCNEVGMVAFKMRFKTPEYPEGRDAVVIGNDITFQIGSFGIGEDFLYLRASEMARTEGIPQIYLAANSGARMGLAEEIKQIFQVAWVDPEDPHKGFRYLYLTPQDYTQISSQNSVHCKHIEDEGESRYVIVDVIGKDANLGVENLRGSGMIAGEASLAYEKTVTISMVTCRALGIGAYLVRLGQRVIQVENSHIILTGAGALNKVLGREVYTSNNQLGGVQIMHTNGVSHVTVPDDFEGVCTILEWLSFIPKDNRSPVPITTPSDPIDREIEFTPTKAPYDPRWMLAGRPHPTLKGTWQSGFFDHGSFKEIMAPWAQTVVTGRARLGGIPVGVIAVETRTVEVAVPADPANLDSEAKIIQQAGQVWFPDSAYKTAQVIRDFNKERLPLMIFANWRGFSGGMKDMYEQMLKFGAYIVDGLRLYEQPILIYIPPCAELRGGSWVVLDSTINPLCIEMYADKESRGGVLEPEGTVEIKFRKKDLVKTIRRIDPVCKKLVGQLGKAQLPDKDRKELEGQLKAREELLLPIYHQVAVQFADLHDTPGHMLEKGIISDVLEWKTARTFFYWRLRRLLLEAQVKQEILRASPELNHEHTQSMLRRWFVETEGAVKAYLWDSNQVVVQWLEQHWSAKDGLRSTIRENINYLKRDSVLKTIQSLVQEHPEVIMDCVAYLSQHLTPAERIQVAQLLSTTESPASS

Row | clearance [1] | microsomal CLint [2] | half-life [3] | AUC(0-t) at 8 h [4] | Papp [5] | IC50 [6] | IC50 [7] | Vd [8] | microsomal CLint [9] | Papp [10] | MRT [11] | Cmax [12] | bioavailability [13] | IC50 [14] | IC50 [15] | SMILES
1 | 1.47 mL/min/kg | 27 µL/min/mg | > 8 h | 6880 ng·h/mL | 27.2 ×10⁻⁶ cm/s | 0.036 µM | 0.00018 µM | 0.269 L/kg | 65 µL/min/mg | 33.7 ×10⁻⁶ cm/s | 3.69 h | 1110 ng/mL | 60.6% |  |  | CC(=O)NC(C)c1ccc2nc(-c3ccc(Oc4cccc(OCC5CC5)c4)nc3)oc2c1 (configuration not stated)
2 |  |  |  |  |  |  |  |  |  |  |  |  |  | 0.08 µM | 0.0021 µM | CC(NC(=O)N(C)C)c1ccc2nc(-c3ccc(Oc4cccc(OCC5CC5)c4)nc3)oc2c1 (configuration not stated)
3 |  |  |  |  |  |  |  |  |  |  |  |  |  | 0.077 µM | 0.0038 µM | CNC(=O)NC(C)c1ccc2nc(-c3ccc(Oc4cccc(OCC5CC5)c4)nc3)oc2c1 (configuration not stated)
